Measured values published in ChEMBL document CHEMBL1141463, “In vitro anti-inflammatory activity of 3-O-methyl-flavones isolated from Siegesbeckia glabrescens” (Bioorg Med Chem Lett, 2008).
Active and inactive are the calls of the source. The calls are words filed in the database; no cut-off is given here.

Tests used:
[1] = Peroxynitrite scavenging activity assessed as inhibition of DHR 123 oxidation; type: functional
BV-2 [2] = assay: Decrease in iNOS protein expression in LPS-activated mouse BV2 cells at 20 uM; type: functional, cell-based
BV-2 [3] = assay: Inhibition of LPS-induced NO production in mouse BV2 cells; type: functional, cell-based

IC50 (BV-2 [3]) | SMILES | SC50 [1] | Activity (BV-2 [2])
– | CC(C)(S)[C@@H](N)C(=O)O | 5.13 µM | –
3.8 µM | COc1c(-c2ccc(O)c(O)c2)oc2cc(O)cc(O)c2c1=O [3-O-METHYLQUERCETIN] | 0.77 µM | Active
13.2 µM | CNC(=N)NCCC[C@H](N)C(=O)O [TILARGININE] | – | –

SMILES | IC50 (BV-2 [3]) | SC50 [1] | Activity (BV-2 [2])
O=c1c(O)c(-c2ccc(O)c(O)c2)oc2cc(O)cc(O)c12 [QUERCETIN] | 29.6 µM | – | –
